Measurements reported in publication PMC12040169 (PLOS Biology, 2025).

Assay: in vitro
Details: human, hela cells, % viability

Point of comparison: `Sc1nnc(CSCc2ccccc2Cl)n1-c1ccccc1` [CBK265219], viability at 28.5 h, 10 µM 100%. Against it:
- O=C(Nc1ccccc1C(=O)O)c1ccc(S(=O)(=O)N2CCCCC2)cc1 [CBK265174] — higher, 103%
- O=C(Nc1ccccc1[N+](=O)[O-])c1ccc(Cl)c(S(=O)(=O)N2CCC(C(=O)O)CC2)c1 [CBK265180] — higher, 101%
- O=C(O)c1ccc(NC(=O)C2CCN(S(=O)(=O)c3ccccc3)CC2)cc1 [CBK265181] — higher, 110%
- O=C(c1ccccc1)c1ccc(NC(=O)c2ccccc2F)c(NC(=O)c2ccccc2F)c1 [CBK265183] — lower, 93.2%
- O=C(O)c1ccc(NS(=O)(=O)c2ccc(NC(=O)c3ccccc3Cl)cc2)cc1 [CBK265184] — lower, 93%
- O=C(O)c1cccc(NC(=O)c2cccc(S(=O)(=O)N3CCc4ccccc4C3)c2)c1 [CBK265187] — higher, 108%
- O=C(OCc1ccc(Cl)cc1)c1ccc2c(c1)C(=O)N(c1cccc([N+](=O)[O-])c1)C2=O [CBK265188] — higher, 109%
- Cc1ccc(C(=O)Nc2cccc3cccnc23)cc1Br [CBK265189] — higher, 102%
- COc1ccccc1-c1coc2cc(OC(=O)c3c(C)oc4ccc(OC(C)=O)cc34)ccc2c1=O [CBK265191] — lower, 92%
- O=C(O)C1N(Cc2ccccc2)CCCN1Cc1ccccc1 [CBK265196] — higher, 111%
- O=C1c2ccccc2C(=O)N1CN(Cc1ccc2c(c1)OCO2)CN1C(=O)c2ccccc2C1=O [CBK265197] — higher, 107%
- Cc1ccc(S(=O)(=O)NCC(=O)Nc2ccc(C)cc2C(=O)c2ccccc2)cc1 [CBK265199] — lower, 85.8%
- COC(=O)c1ccc(C2N(Cc3ccccc3)CCN2Cc2ccccc2)cc1 [CBK265201] — lower, 87.3%
- Cc1cccc(Nc2nc(N)nc(CC(=O)CSc3ccc(Cl)cc3)n2)c1 [CBK265204] — higher, 104%
- COc1ccc(-c2nnc(SCc3csc(Nc4ccccc4)n3)n2-c2ccccc2)cc1 [CBK265205] — lower, 89.1%
- Oc1ccc(/C=N/n2c(S)nnc2C(F)(F)F)cc1 [CBK265206] — lower, 98.6%
- Clc1ccc(CN2CCN(Cc3ccc(Cl)cc3)C2c2ccncc2)cc1 [CBK265207] — higher, 104%
- NS(=O)(=O)c1ccc(NC(=O)C2Cc3ccccc3CN2S(=O)(=O)c2ccc(F)cc2)cc1 (centres unmarked) [CBK265208] — higher, 103%
- Cn1c(SCC(=O)N2CCN(c3ccccc3)CC2)nnc1-c1cccc([N+](=O)[O-])c1 [CBK265209] — higher, 105%
- COc1cc(CN2CCN(C(=O)c3cccnc3)CC2)cc(OC)c1O [CBK265210G] — lower, 85.2%
- CC(C)C(=O)Nc1cccc(NC(=O)COc2ccc(Br)cc2)c1 [CBK265211] — lower, 94%
- CCOC(=O)c1c(NC(=O)CN2CC(C)OC(C)C2)sc2c1CCCC2 (centres unmarked) [CBK265216] — higher, 103%
- CC(=O)Nc1ccc(N2C(=O)CC(N3CCN(Cc4ccc5c(c4)OCO5)CC3)C2=O)cc1 (centres unmarked) [CBK265217] — higher, 106%
- CN1CCN(C(S)=Nc2ccc(S(N)(=O)=O)cc2)CC1 [CBK265223] — lower, 92.5%
- COc1cc(C2N(Cc3ccccc3)CCCN2Cc2ccccc2)c([N+](=O)[O-])cc1OC [CBK265224] — lower, 88.2%
- O=C(/C=C/c1ccc(F)cc1)NCCc1ccc(S(=O)(=O)N2CCCC2)cc1 [CBK265227] — lower, 81.8%
- N/C(=N/OCC(=O)Nc1cccc2ccccc12)c1nonc1N [CBK265234] — lower, 90.6%
- O=[N+]([O-])c1ccc(/C=N/n2c(S)nnc2COc2ccccc2)cc1 [CBK265240] — lower, 91.5%
- CC(=O)Nc1ccc(S(=O)(=O)N2CCCCC2C(=O)O)cc1 (centres unmarked) [CBK265241] — higher, 102%
- CCOc1cc(/C=C2\SC(=N)NC2=O)ccc1OS(=O)(=O)c1ccc(NC(C)=O)cc1 [CBK265243] — lower, 94%
- COc1cccc(NC(=S)NCCc2ccccn2)c1 [CBK265245] — lower, 96.9%
- Cn1nc([N+](=O)[O-])nc1OCc1nc2ccccc2n1C [CBK265247] — lower, 88.9%
- COC(=O)Nc1ccc(S(=O)(=O)N2CCCC(C(=O)Nc3cccc(C(F)(F)F)c3)C2)cc1 (centres unmarked) [CBK265248] — lower, 92.3%
- COC(=O)CN1C(=O)S/C(=C/c2cc(C)n(-c3ccc(S(N)(=O)=O)cc3)c2C)C1=O [CBK265249] — lower, 95.9%
- O=C(O)CN1/C(=C\C=C2/SC(=S)N(c3ccccc3)C2=O)Sc2ccccc21 [CBK265251] — lower, 86.3%
- O=C(O)COc1ccccc1/C=N/n1c(S)nnc1-c1ccncc1 [CBK265253] — higher, 111%
- O=[N+]([O-])c1ccccc1S(=O)(=O)NCCSCc1c(F)cccc1Cl [CBK265259] — higher, 102%
- FC(F)(F)c1ccccc1/C=N/n1c(S)nnc1COc1ccccc1 [CBK265260] — lower, 99.7%
- COc1ccc(Cl)cc1NC(=O)CN(c1ccccc1)S(=O)(=O)c1ccc(Cl)cc1 [CBK265261] — higher, 105%
- CS(=O)(=O)N(CC(=O)Nc1ccccc1F)c1ccc(I)cc1 [CBK265265] — lower, 97.4%
- O=C(O)C(Cc1ccccc1)Nc1ncnc2sc3c(c12)CCC3 (centres unmarked) [CBK265266] — lower, 90.2%
- CC12CCC(C(=O)O)(C/C1=N\N)C2(C)C (centres unmarked) [CBK265268] — higher, 113%
- COC(=O)CN1C(=O)S/C(=C/c2cc(C)n(-c3ccc4ncccc4c3)c2C)C1=O [CBK265275] — higher, 121%
- COc1ccc(C2=NN(c3ccc([N+](=O)[O-])cc3)C(=O)/C2=C/NCc2ccccn2)cc1 [CBK265276] — higher, 107%
- O=C(CCc1ccccc1)NC(c1cccc([N+](=O)[O-])c1)c1c(O)ccc2ccccc12 (centres unmarked) [CBK265278] — higher, 109%
- COc1cc(/C=C2\SC(=S)N(c3cccc(C(=O)O)c3)C2=O)cc([N+](=O)[O-])c1O [CBK265281] — lower, 96.2%
- O=C(O)CCn1cc(/C=C2\SC(=S)NC2=O)c(-c2cccc(Br)c2)n1 [CBK265287] — higher, 110%
- Oc1ccc(/C=C/c2nc(-c3ccccc3O)n(-c3ccccc3)n2)cc1 [CBK265289] — lower, 74.4%
- O=C(CN(c1ccccc1)S(=O)(=O)c1ccccc1)N1CCN(Cc2ccc3c(c2)OCO3)CC1 [CBK265290] — lower, 90%
- O=C(Nc1cccc([N+](=O)[O-])c1)c1ccc(CSc2ccccc2)cc1 [CBK265295] — higher, 117%
- CCOC(=O)c1cnc2c(C)c(Cl)ccc2c1NCCCN1CCOCC1 [CBK265296] — lower, 99.6%
- CCOC(=O)c1c(NC(=O)/C=C/C(=O)O)sc2c1CCCCC2 [CBK265299] — lower, 91.5%
- Oc1cccc(/C=N/n2c(S)nnc2-c2ccncc2)c1 [CBK265300] — higher, 109%
- COc1ccc(S(=O)(=O)N(CC(=O)N2CCC(C(N)=O)CC2)c2ccccc2)cc1 [CBK265301] — higher, 108%
- Cc1cc(C(=O)Oc2cccc(NC3=NS(=O)(=O)c4ccccc43)c2)c2ccccc2n1 [CBK265302] — lower, 96.5%
- O=S(=O)(NCCSCc1c(Cl)cccc1Cl)c1ccc(Cl)cc1 [CBK265304] — lower, 91.2%
- CSc1nc(O)c(C(c2ccc(Cl)cc2)c2c(O)nc(SC)nc2O)c(O)n1 [CBK265306] — higher, 105%
- O=C(CNC(=S)NC(=O)c1ccc(Br)o1)c1ccccc1 [CBK265310] — lower, 98%
- N=C1NC(=O)/C(=C/c2c(OS(=O)(=O)c3ccc(Cl)cc3)ccc3ccccc23)S1 [CBK265311] — lower, 89.6%
- CCNC(=O)c1cc2c(=O)n3cc(C)ccc3nc2n(Cc2ccco2)c1=N [CBK265312] — lower, 85.8%
- CSc1nc(O)c(C(c2ccc(C)cc2)c2c(O)nc(SC)nc2O)c(O)n1 [CBK265313] — lower, 90.3%
- NC(=O)C1CCN(C(=O)CN(c2ccccc2)S(=O)(=O)c2ccccc2[N+](=O)[O-])CC1 [CBK265320] — lower, 78%
- COc1ccc(NC(=S)NC(=O)c2cc3c(C)nn(-c4ccccc4)c3s2)cc1[N+](=O)[O-] [CBK265324] — higher, 102%
- CN(C)CCCOC(=O)C(C)(c1ccccc1)c1ccccc1 [CBK265325C] — higher, 118%
- OCCNC(=S)Nc1ccc(Cl)cc1Cl [CBK265330] — higher, 106%
- N/C(=N\OCC(=O)Nc1ccc(-n2cnnn2)cc1)c1nonc1N [CBK265331] — higher, 104%
- Cc1ccc(NC(=O)c2cc(NC(=O)c3ccccc3C(=O)O)ccc2N2CCCCC2)cc1 [CBK265332] — the same, 100%
- COc1ccc(NC(=O)CC2SC(=N)NC2=O)c([N+](=O)[O-])c1 (centres unmarked) [CBK265334] — lower, 95.9%
- O=C(O)COc1ccccc1/C=N/n1c(S)nnc1-c1cccnc1 [CBK265337] — lower, 89.9%
- O=C(Nc1ccccc1)Nc1ccccc1C(=O)NCc1ccccc1 [CBK265338] — lower, 90.2%
- CC(=O)NC(=NOCc1ccc(Br)cc1)c1nonc1NC(C)=O [CBK265342] — lower, 87.8%
- COc1ccccc1NC(=S)NCCN(C)C [CBK265343] — higher, 111%
- O=C(O)c1ccc(/C=N/N2CCN(Cc3ccccc3)CC2)cc1 [CBK265344] — higher, 108%
- O=C(O)CCNc1nc(Cc2ccccc2)nc2sc3c(c12)CCCC3 [CBK265345] — lower, 93.4%
- CCc1cc2c(NC(C(=O)O)C(C)C)ncnc2s1 (centres unmarked) [CBK265349] — lower, 97.7%
- Cc1ccc(NC(=O)c2cc(NC(=O)C3C4C=CC(C4)C3C(=O)O)ccc2N2CCCCC2)cc1 (centres unmarked) [CBK265350] — higher, 107%
- CC(=O)Nc1ccc(C(=O)N/C(=C/c2ccccc2)C(=O)O)cc1 [CBK265353] — lower, 87.6%
- N=C1/C(=C/c2ccc(-c3cccc([N+](=O)[O-])c3)o2)C(=O)N=C2SC(SCc3ccccc3)=NN12 [CBK265354] — lower, 88.5%
- Cc1sc2ncn(Cc3c(Cl)cccc3Cl)c(=O)c2c1C [CBK265355] — lower, 78.8%
- COc1ccccc1NC(=S)NCCc1ccccn1 [CBK265358] — lower, 91.2%

Same assay, conditions: human, hela cells, % viability, bulk resorufin, single well

Point of comparison: `CCNC(=S)N1CCN(CCNC=C2C(=O)NC(=O)NC2=O)CC1` [CBK265228], viability at 28.5 h, 10 µM 111%. Against it:
- O=C(O)CCn1cc(C=C2C(=O)NC(=S)NC2=O)c(-c2cccc([N+](=O)[O-])c2)n1 [CBK265309] — higher, 116%
